Measurements reported in patent US20250382305A1 (PTC THERAPEUTICS, INC., priority 2022, published 2025).

How the values were obtained:
[1] = test system: Total ATXN3 (tATXN3) protein; test: Endogenous Total ATXN3 (tATXN3) Protein Assay (MSD immunoassay of cell lysates); assay type: cell-based; conditions: average IC50, total ATXN3 protein in cell lysate after 48 h with compound (Table 1)
How it was run: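 Cells in DMEM/10% FBS were plated at 10,000 per well onto 7-point, 3.16-fold compound dilutions in duplicate for 48 h at 37° C, then lysed. Total ATXN3 in lysates was measured by MSD sandwich immunoassay: mouse anti-ATXN3 capture, rabbit anti-ATXN3 detection, SULFO-TAG anti-rabbit. Average IC50 was reported in star bins.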

ATXN3 pre-mRNA = test: RT-qPCR Assay to Quantify Exon 4 Skipping in ATXN3 pre-mRNA in Cells; assay type: cell-based; conditions: percent exon 4 skipping in ATXN3 pre-mRNA, RT-qPCR of cell lysates; average IC50
How it was run: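 Cells plated at 10,000/well onto a 7-point, 3.16-fold DMSO dilution series (duplicates), incubated 24 h at 37 °C, then lysed. Exon 4 skipping measured by one-step RT-qPCR (48 °C RT, 40 cycles); IC50 interpolated from dose-response fit of percent skipping.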

Cc1c([C@H]2CCCC[C@@H]2N)sc2c(NCc3ccco3)nc(Cl)nc12 [Compound 60, 6-((1S,2S)-2-aminocyclohexyl)-2-chloro-N-(furan-2-ylmethyl)-7-methylthieno[3,2-d]pyrimidin-4-amine] was tested, and the IC50 [1] was ≤ 30 nM and the IC50 (ATXN3 pre-mRNA) was ≤ 30 nM.

In the case of N[C@H]1CCC[C@@H]1c1cc2nc(Cl)cc(NCc3cccs3)c2s1 [Compound 10, 2-((1S,2S)-2-aminocyclopentyl)-5-chloro-N-(thiophen-2-ylmethyl)thieno[3,2-b]pyridin-7-amine], the IC50 [1] is reported as 300 to 1000 nM and the IC50 (ATXN3 pre-mRNA) is reported as 300 to 1000 nM.

For N[C@@H]1CCCN[C@H]1c1sc2c(NCc3cccs3)cc(Cl)nc2c1Br.N[C@H]1CCCN[C@@H]1c1sc2c(NCc3cccs3)cc(Cl)nc2c1Br (mixture of isomers) [Compound 47, 2-((2R,3R)-3-aminopiperidin-2-yl)-3-bromo-5-chloro-N-(thiophen-2-ylmethyl)thieno[3,2-b]pyridin-7-amine and 2-((2S,3S)-3-aminopiperidin-2-yl)-3-bromo-5-chloro-N-(thiophen-2-ylmethyl)thieno[3,2-b]pyridin-7-amine], the IC50 [1] was > 1000 nM and the IC50 (ATXN3 pre-mRNA) was 300 to 1000 nM.

N[C@@H]1COCC[C@H]1c1sc2c(NCc3nccs3)cc(Cl)nc2c1Cl [Compound 407, 2-((3S,4R)-3-aminotetrahydro-2H-pyran-4-yl)-3,5-dichloro-N-(thiazol-2-ylmethyl)thieno[3,2-b]pyridin-7-amine] gave an IC50 [1] of 30 to 300 nM and an IC50 (ATXN3 pre-mRNA) of 30 to 300 nM.

In the case of N[C@H]1CCCC[C@@H]1c1sc2c(NCc3ccco3)nc(Cl)nc2c1Br [Compound 68, 6-((1S,2S)-2-aminocyclohexyl)-7-bromo-2-chloro-N-(furan-2-ylmethyl)thieno[3,2-d]pyrimidin-4-amine], the IC50 [1] is reported as ≤ 30 nM and the IC50 (ATXN3 pre-mRNA) is reported as ≤ 30 nM.

CC#CCNc1cc(Cl)nc2c(Br)c([C@H]3CCCC[C@@H]3N)sc12 [Compound 301, 2-((1S,2S)-2-aminocyclohexyl)-3-bromo-N-(but-2-yn-1-yl)-5-chlorothieno[3,2-b]pyridin-7-amine] was tested, and the IC50 [1] was 30 to 300 nM and the IC50 (ATXN3 pre-mRNA) was 30 to 300 nM.

For N[C@H]1CC=CC[C@@H]1c1sc2c(NCc3cccs3)cc(Cl)nc2c1C#CC[C@H](O)CO [Compound 216, (S)-5-(2-((1S,6S)-6-aminocyclohex-3-en-1-yl)-5-chloro-7-((thiophen-2-ylmethyl)amino)thieno[3,2-b]pyridin-3-yl)pent-4-yne-1,2-diol], the IC50 [1] was ≤ 30 nM and the IC50 (ATXN3 pre-mRNA) was ≤ 30 nM.

With CC#CCNc1cc(Cl)nc2c(Br)c([C@@H]3CC=CC[C@H]3N)sc12 [Compound 429, 2-((1R,6R)-6-aminocyclohex-3-en-1-yl)-3-bromo-N-(but-2-yn-1-yl)-5-chlorothieno[3,2-b]pyridin-7-amine] the IC50 [1] was ≤ 30 nM and the IC50 (ATXN3 pre-mRNA) was ≤ 30 nM.

With “2-((4R,5S)-5-aminoazepan-4-yl)-3-bromo-5-chloro-N-(thiophen-2-ylmethyl)thieno[3,2-b]pyridin-7-amine and 2-((4S,5S)-5-aminoazepan-4-yl)-3-bromo-5-chloro-N-(thiophen-2-ylmethyl)thieno[3,2-b]pyridin-7-amine [Compound 148]” the IC50 [1] was > 1000 nM and the IC50 (ATXN3 pre-mRNA) was > 1000 nM.

With “6-((2R,3R)-3-aminotetrahydro-2H-pyran-2-yl)-2-chloro-N-(furan-2-ylmethyl)-7-iodothieno[3,2-d]pyrimidin-4-amine and 6-((2S,3S)-3-aminotetrahydro-2H-pyran-2-yl)-2-chloro-N-(furan-2-ylmethyl)-7-iodothieno[3,2-d]pyrimidin-4-amine [Compound 243]” the IC50 [1] was ≤ 30 nM and the IC50 (ATXN3 pre-mRNA) was ≤ 30 nM.

N[C@@H]1CC=CC[C@@H]1c1sc2c(NCc3cccs3)cc(Cl)nc2c1Br.N[C@H]1CC=CC[C@H]1c1sc2c(NCc3cccs3)cc(Cl)nc2c1Br (racemic) [Compound 144, 2-((1S,6RS)-6-aminocyclohex-3-en-1-yl)-3-bromo-5-chloro-N-(thiophen-2-ylmethyl)thieno[3,2-b]pyridin-7-amine and 2-((1R,6SR)-6-aminocyclohex-3-en-1-yl)-3-bromo-5-chloro-N-(thiophen-2-ylmethyl)thieno[3,2-b]pyridin-7-amine] was tested, and the IC50 [1] was ≤ 30 nM and the IC50 (ATXN3 pre-mRNA) was ≤ 30 nM.

For [2H]C1=C([2H])C([2H])([2H])[C@H](c2sc3c(NCc4ccco4)nc(Cl)nc3c2C)[C@@H](N)C1([2H])[2H] [Compound 187, 6-((1S,6S)-6-aminocyclohex-3-en-1-yl-2,2,3,4,5,5-d6)-2-chloro-N-(furan-2-ylmethyl)-7-methylthieno[3,2-d]pyrimidin-4-amine], the IC50 [1] was ≤ 30 nM and the IC50 (ATXN3 pre-mRNA) was ≤ 30 nM.

For Cc1c([C@H]2CC=CC[C@@H]2N)sc2c(NCc3cccs3)cc(C#N)nc12 [Compound 246, 2-((1S,6S)-6-aminocyclohex-3-en-1-yl)-3-methyl-7-((thiophen-2-ylmethyl)amino)thieno[3,2-b]pyridine-5-carbonitrile], the IC50 [1] was ≤ 30 nM and the IC50 (ATXN3 pre-mRNA) was 30 to 300 nM.

CN(Cc1ccccc1)c1cc(Cl)nc2c(C#CCCCO)c([C@H]3CC=CC[C@@H]3N)sc12 [Compound 453, 5-(2-((1S,6S)-6-aminocyclohex-3-en-1-yl)-7-(benzyl(methyl)amino)-5-chlorothieno[3,2-b]pyridin-3-yl)pent-4-yn-1-ol] showed an IC50 [1] of 300 to 1000 nM and an IC50 (ATXN3 pre-mRNA) of 300 to 1000 nM.

With N[C@H]1CC=CC[C@@H]1c1sc2c(NCc3ncco3)cc(Cl)nc2c1Cl [Compound 199, 2-((1S,6S)-6-aminocyclohex-3-en-1-yl)-3,5-dichloro-N-(oxazol-2-ylmethyl)thieno[3,2-b]pyridin-7-amine] the IC50 [1] was ≤ 30 nM and the IC50 (ATXN3 pre-mRNA) was ≤ 30 nM.

In the case of “6-((1R,6R)-6-aminocyclohex-3-en-1-yl-2,2,3,4,5,5-d6)-7-bromo-2-chloro-N-(furan-2-ylmethyl)thieno[3,2-d]pyrimidin-4-amine and 6-((1S,6S)-6-aminocyclohex-3-en-1-yl-2,2,3,4,5,5-d6)-7-bromo-2-chloro-N-(furan-2-ylmethyl)thieno[3,2-d]pyrimidin-4-amine [Compound 200]”, the IC50 [1] is reported as ≤ 30 nM and the IC50 (ATXN3 pre-mRNA) is reported as ≤ 30 nM.

In the case of “2-((1R,6S)-6-amino-2,2-difluorocyclohexyl)-3-bromo-N-((E)-but-2-en-1-yl)-5-chlorothieno[3,2-b]pyridin-7-amine and 2-((1S,6R)-6-amino-2,2-difluorocyclohexyl)-3-bromo-N-((E)-but-2-en-1-yl)-5-chlorothieno[3,2-b]pyridin-7-amine [Compound 425]”, the IC50 [1] is reported as > 1000 nM and the IC50 (ATXN3 pre-mRNA) is reported as 300 to 1000 nM.

For N[C@H]1CC=CC[C@@H]1c1sc2c(NCc3cccs3)cc(Cl)nc2c1Br [Compound 186, 2-((1S,6S)-6-aminocyclohex-3-en-1-yl)-3-bromo-5-chloro-N-(thiophen-2-ylmethyl)thieno[3,2-b]pyridin-7-amine], the IC50 [1] was ≤ 30 nM and the IC50 (ATXN3 pre-mRNA) was ≤ 30 nM.

For N[C@@H]1CCCC[C@H]1c1sc2c(NCc3ccco3)nc(Cl)nc2c1Br [Compound 67, 6-((1R,2R)-2-aminocyclohexyl)-7-bromo-2-chloro-N-(furan-2-ylmethyl)thieno[3,2-d]pyrimidin-4-amine], the IC50 [1] was 300 to 1000 nM and the IC50 (ATXN3 pre-mRNA) was 300 to 1000 nM.

With N[C@H]1CCCC[C@@H]1c1sc2c(NCc3ccccc3)cc(Cl)nc2c1Cl [Compound 237, 2-((1S,2S)-2-aminocyclohexyl)-N-benzyl-3,5-dichlorothieno[3,2-b]pyridin-7-amine] the IC50 [1] was ≤ 30 nM and the IC50 (ATXN3 pre-mRNA) was ≤ 30 nM.

N[C@H]1CCCO[C@@H]1c1sc2c(NCc3ccccc3)cc(Cl)nc2c1Cl [Compound 110, 2-((2S,3S)-3-aminotetrahydro-2H-pyran-2-yl)-N-benzyl-3,5-dichlorothieno[3,2-b]pyridin-7-amine] was tested, and the IC50 [1] was 30 to 300 nM and the IC50 (ATXN3 pre-mRNA) was ≤ 30 nM.
